Measurements from PubChem BioAssay AID651630 (Sanford-Burnham Center for Chemical Genomics, 2012).
Activity calls are given as the source filed them.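 Rule for the calls: active = lipid-stain IC50 at or below a set limit, with nuclear-stain toxicity IC50 at least five times higher; inactive = the rest.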

How the values were obtained:
TAG = TAG lipid buildup inhibition with viability readout – cell-based, panel, Nile Red and DAPI fluorescence, H9c2, dose response (AID 651630); conditions: H9c2 cells, Nile Red TAG fluorescence, oleic acid;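 note: cells exposed to compound overnight before fixation and staining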
DAPI = experiment: as above; conditions: H9c2 cells, DAPI nuclear fluorescence (cytotoxicity counter-readout), oleic acid

Structure (SMILES) | IC50 (TAG; mean of runs) | IC50 (TAG; run 1) [µM] | IC50 (TAG; run 2) [µM] | IC50 cytotoxicity (DAPI nuclear signal decrease) (DAPI; mean of runs) | IC50 cytotoxicity (DAPI nuclear signal decrease) (DAPI; run 1) [µM] | IC50 cytotoxicity (DAPI nuclear signal decrease) (DAPI; run 2) [µM]
COc1ccc(-c2sc3cc4c(cc3c2C#Cc2ccc(N)cc2)OCO4)cc1 | > 25 µM (inactive) | > 25 | > 25 | > 25 µM (inactive) | > 25 | > 25
Cc1cccc(-c2ccc3[nH]c4c(c3c2)CCN2C[C@@H]([C@H](C)O)[C@@H](N(C)C(=O)Nc3ccc(F)cc3)C[C@@H]42)c1 | – | 18 | > 25 | > 25 µM (inactive) | > 25 | > 25
Cc1cc(NC(=O)CSc2nc(C(C)C)nc3sc4c(c23)CCC(C)C4)no1 (centres undefined) | > 25 µM (inactive) | > 25 | > 25 | > 25 µM (inactive) | > 25 | > 25
COC(=O)c1cc(C(=O)N2CCN(c3ccccc3OC)CC2)cc([N+](=O)[O-])c1 | 13.2 µM | 11.8 | 14.5 | > 25 µM (inactive) | > 25 | > 25
CN(C)CCCn1c(=O)n(C2CCCCC2)c(=O)c2c3c(sc21)CCCCC3 | > 25 µM (inactive) | > 25 | > 25 | > 25 µM (inactive) | > 25 | > 25
CCOc1ccccc1C1C2=C(COC2=O)Nc2cc3c(cc21)OCO3 (centres undefined) | – | > 25 | < 0.78 | > 25 µM (inactive) | > 25 | > 25
CC(Sc1nc(NCc2ccccc2)nc(N2CCOCC2)n1)C(=O)Nc1ccccc1 (centres undefined) | 1.44 µM | 1.29 | 1.58 | – | > 25 | > 25
COc1cc(NC(=O)Nc2nc(C(N)CCc3ccccc3)cs2)cc(OC)c1OC (centres undefined) | 6.55 µM | 5.15 | 7.96 | > 25 µM (inactive) | > 25 | > 25
O=C(Cn1cc[n+](CC(=O)c2ccc(Cl)cc2Cl)c1)c1ccc(Cl)cc1Cl | – | > 25 | 20.9 | > 25 µM (inactive) | > 25 | > 25
Cc1ccc(-c2nn(-c3ccccc3)cc2NC(=O)CCl)cc1 | > 25 µM (inactive) | > 25 | > 25 | – | 20.6 | > 25
CC1(C)CC(=O)C2=C(C1)Oc1nc3ccccc3cc1C2C(C#N)C#N (centres undefined) | 17.2 µM (inactive) | 16.5 | 17.8 | 12.7 µM (inactive) | 11.4 | 14
COc1ccc(CNC(=O)Nc2nc(C(N)Cc3ccc(Cl)cc3)cs2)cc1 (centres undefined) | > 25 µM (inactive) | > 25 | > 25 | 21.7 µM (inactive) | 19.5 | 23.9
CCOCCOC(=O)c1[nH]c2c(c1C)C(=O)CC(c1cccs1)C2 (centres undefined) | > 25 µM (inactive) | > 25 | > 25 | > 25 µM (inactive) | > 25 | > 25
CN1CSC(=S)N(C)C1 | > 25 µM (inactive) | > 25 | > 25 | > 25 µM (inactive) | > 25 | > 25
Cc1ccc(Oc2ccc(S(=O)(=O)N3CCOCC3)cc2C(N)=O)c(-n2nc3ccccc3n2)c1 | > 25 µM (inactive) | > 25 | > 25 | > 25 µM (inactive) | > 25 | > 25
COc1ccc(Nc2cc(=O)oc3ccccc23)cc1 | > 25 µM (inactive) | > 25 | > 25 | > 25 µM (inactive) | > 25 | > 25
CCCCCC(/C=N/Nc1ccc(S(=O)(=O)N2CCOCC2)cc1[N+](=O)[O-])=C\c1ccccc1 | 14.4 µM | 12.8 | 15.9 | > 25 µM (inactive) | > 25 | > 25

Structure (SMILES) | IC50 (TAG; mean of runs) | IC50 (TAG; run 1) [µM] | IC50 (TAG; run 2) [µM] | IC50 cytotoxicity (DAPI nuclear signal decrease) (DAPI; mean of runs) | IC50 cytotoxicity (DAPI nuclear signal decrease) (DAPI; run 1) [µM] | IC50 cytotoxicity (DAPI nuclear signal decrease) (DAPI; run 2) [µM]
O=C(CC1C[C@H](C(=O)N2CCOCC2)[C@@]2(CCC3CCCC3)c3[nH]c4ccccc4c3CCN2C1=O)NCC12CC3CC(CC(C3)C1)C2 (some centres undefined) | > 25 µM (inactive) | > 25 | > 25 | > 25 µM (inactive) | > 25 | > 25
COc1cc(/C=C/CN2CCC(C(=O)NC(c3ccc(F)cc3)c3ccc4ccccc4n3)CC2)ccc1OC(C)=O (centres undefined) | 11.6 µM | 13.3 | 9.99 | > 25 µM (inactive) | > 25 | > 25
CCN(CC)c1ccc(/C=C2\CCC(/C=C(/C#N)C(=O)Nc3ccccc3F)=C2N2CCOCC2)cc1 | < 0.78 µM | < 0.78 | < 0.78 | – | > 25 | > 25
CSc1nc(N(C)NC(=O)c2ccccc2)c2ccccc2n1 | 17.8 µM (inactive) | 22 | 13.6 | > 25 µM (inactive) | > 25 | > 25
CCOc1ccc2nc(NC(=O)CN3CCC(n4nnc5cc(F)ccc54)CC3)sc2c1 | 21.3 µM (inactive) | 17.9 | 24.6 | > 25 µM (inactive) | > 25 | > 25
COc1ccc([C@H]2C[C@H](O)[C@@H](n3cc(-c4ccc(F)cc4)nn3)CN2Cc2cccs2)cc1 | 18.3 µM (inactive) | 12.2 | 24.3 | – | 23.6 | > 25
C/C(=N\Nc1ccc(Cl)nn1)c1ccccc1O | > 25 µM (inactive) | > 25 | > 25 | > 25 µM (inactive) | > 25 | > 25
CCN1CCN(c2ncc3c(n2)CC(c2cc(OC)c(OC)c(OC)c2)CC3=O)CC1 (centres undefined) | > 25 µM (inactive) | > 25 | > 25 | > 25 µM (inactive) | > 25 | > 25
COc1cc(OC)cc(C(=O)N2CC(=O)Nc3ccccc32)c1 | > 25 µM (inactive) | > 25 | > 25 | > 25 µM (inactive) | > 25 | > 25
C#CCN(C[C@@H]1[C@@H](OC(=O)NCC2CCCCC2)[C@@H](OC(=O)NCC2CCCCC2)CN(C(=O)OC(C)C)N1C(=O)OC(C)C)S(=O)(=O)c1ccc(C)cc1 | 10.6 µM | 10.1 | 11.2 | > 25 µM (inactive) | > 25 | > 25
CCOC(=O)c1c(NC(C)=O)sc2c(OCC(O)CN(CC)CC)c(Br)ccc12 (centres undefined) | – | > 25 | 22.1 | > 25 µM (inactive) | > 25 | > 25
COc1cc(C2c3cc4c(cc3OC(C)(N3CCCC3)C2C)OCO4)cc(OC)c1OC (centres undefined) | 13.8 µM | 10.4 | 17.1 | > 25 µM (inactive) | > 25 | > 25
C[C@@H]1CN([C@H](C)CO)C(=O)c2c(c3ccccc3n2C)-c2ccccc2CO[C@H]1CN(C)Cc1ccc(Oc2ccccc2)cc1 | > 25 µM (inactive) | > 25 | > 25 | – | > 25 | 20
Cc1ccc2c(c1)N(C(=O)CCC(=O)NCCCN1CCC(Cc3ccccc3)CC1)CCO2 | 18.7 µM (inactive) | 19.5 | 17.9 | 22.3 µM (inactive) | 20.2 | 24.3
CCCOc1ccc(F)cc1-c1cc(C(=O)NCc2cc(OC)cc(OC)c2)[nH]n1 | 10.1 µM | 10.8 | 9.39 | > 25 µM (inactive) | > 25 | > 25
CC1(C)Cc2nc3sc4c(SCC(=O)NCc5ccco5)ncnc4c3cc2CO1 | > 25 µM (inactive) | > 25 | > 25 | > 25 µM (inactive) | > 25 | > 25
COC(=O)c1ccc(Oc2cc(C)nc(SC)n2)cc1 | – | > 25 | 14.1 | > 25 µM (inactive) | > 25 | > 25
